Experimental data taken from patent US8314098B2, “Pyrazolo-pyrimidine compounds” (Ajinomoto Co., Inc., priority 2008, dated 2012).

Legend:
TNF-α = TNF-α production inhibition in macrophages derived from mouse abdomen (IFN-γ/SAC stimulation, ELISA); format: cell-based; conditions: Macrophage; mouse (Balb/c) abdominal macrophages, 100 ng/mL mouse IFN-γ + 0.05% SAC, overnight; TFA salts tested where prepared as such; read-out: TNF-α-Inhibitory Activity IC50
Protocol: (§1) One milliliter each of a 3% (w/v) thioglycolate solution was intraperitoneally administered to mice (female Balb/c mice), the abdominal cells of each mouse were recovered after 5 or 6 days from the administration of the thioglycolate solution and the adhesive cells were collected and used in the exaluation procedures. To a culture medium containing such adhesive cells, there were added 100 ng/mL of mouse interferon-γ and a 0.05% (v/v) liquid containing killed cells derived from Staphylococcus aureus Cowan I strain (SAC) and a candidate compound and then the mixture was cultivated overnight. After the completion of the cultivation, the survival ratios were determined, there were quantitatively determined the quantities of IL-12p70 (the complex of IL-12p35 and p40) and IL-12p40 or TNF-α according to the ELISA assays while making use of the recovered supernatant of the culture medium and the 50% production-inhibitory concentration (IC50) was calculated for each case (see Table 1 and Tables 1-9 for IL-12p70 and TNF-α and Tables 1 to 10 for IL-12p40).

[1] = test system: IL-12p70 (the complex of IL-12p35 and p40); assay: IL-12p70 production inhibition in macrophages derived from mouse abdomen (IFN-γ/SAC stimulation, ELISA); format: cell-based; conditions: Macrophage; mouse (Balb/c) abdominal macrophages, 100 ng/mL mouse IFN-γ + 0.05% SAC, overnight; TFA salts tested where prepared as such; read-out: IL-12p70-Inhibitory Activity IC50
Protocol: as §1

| Compound | IC50 (TNF-α) [nM] | IC50 [1] [nM] |
| --- | --- | --- |
| Cc1cccc(/C=N/Nc2cc(N3CCOCC3)n3nc(-c4ccccn4)cc3n2)c1 [Compound 20, N-(3-methyl-benzylidene)-N′-(7-morpholin-4-yl-2-pyridin-2-yl-pyrazolo[1,5-a]pyrimidin-5-yl)-hydrazine] | > 10000 | 8 |
| Cc1cccc(/C=N/Nc2cc(N3CCOCC3)n3ncc(Br)c3n2)c1 [Compound 11, N-(3-bromo-7-morpholin-4-yl-pyrazolo[1,5-a]pyrimidin-5-yl)-N′-(3-methyl-benzylidene)-hydrazine] | > 10000 | 340 |
| Cc1cccc(/C=N/Nc2cc(N3CCOCC3)n3nc(-c4ccc(Cl)cc4)cc3n2)c1 [Compound 13, N-{2-(4-chlorophenyl)-7-morpholin-4-yl-pyrazolo[1,5-a]-pyrimidin-5-yl}-N′-(3-methyl-benzylidene)-hydrazine] | > 10000 | 34 |
| Cc1cccc(/C=N/Nc2cc(N3CCOCC3)n3nc(-c4cccs4)cc3n2)c1 [Compound 18, N-(3-methyl-benzylidene)-N′-(7-morpholin-4-yl-2-thiophen-2-yl-pyrazolo[1,5-a]pyrimidin-5-yl)-hydrazine] | > 10000 | 11 |
| Cc1cccc(/C=N/Nc2cc(N3CCOCC3)n3nc(-c4ccc(Br)cc4)cc3n2)c1 [Compound 16, N-{2-(4-bromo-phenyl)-7-morpholin-4-yl-pyrazolo[1,5-a]-pyrimidin-5-yl}-N′-(3-methyl-benzylidene)-hydrazine] | > 10000 | 18 |
| Cc1ccc(-c2nn3c(N4CCOCC4)cc(N/N=C/c4cccc(C)c4)nc3c2Br)cc1 [Compound 5, N-{3-bromo-2-(4-methylphenyl)-7-morpholin-4-yl-pyrazolo-[1,5-a]pyrimidin-5-yl}-N′-(3-methyl-benzylidene)-hydrazine] | > 10000 | 124 |
| CC(=O)N1CCN(c2ccc(-c3cc4nc(N/N=C/c5cccc(C)c5)cc(N5CCOCC5)n4n3)cc2)CC1 [Compound 22, N-[2-{4-(4-acetyl-piperazin-1-yl)-phenyl}-7-morpholin-4-yl-pyrazolo[1,5-a]pyrimidin-5-yl]-N′-(3-methyl-benzylidene)-hydrazine] | > 10000 | 5 |
| Cc1cccc(CNNc2cc(N3CCOCC3)n3nc(-c4ccccc4)cc3n2)c1 [Compound 34, N-(3-methyl-benzyl)-N′-(7-morpholin-4-yl-2-phenyl-pyrazolo[1,5-a]pyrimidin-5-yl)-hydrazine] | > 10000 | 24 |
| CCOC(=O)c1cc2nc(N/N=C/c3cccc(C)c3)cc(N3CCOCC3)n2n1 [Compound 81, N-(2-ethoxycarbonyl-7-morpholin-4-yl-pyrazolo[1,5-a]-pyrimidin-5-yl)-N′-(3-methyl-benzylidene)-hydrazine] | > 10000 | 55 |
| Cc1ccc(-c2cc3nc(N/N=C/c4cccc(C)c4)cc(N4CCOCC4)n3n2)cc1 [Compound 3, N-(3-methyl-benzylidene)-N′-{2-(4-methylphenyl)-7-morpholin-4-yl-pyrazolo[1,5-a]pyrimidin-5-yl}-hydrazine] | > 10000 | 35 |
| C(=N\Nc1cc(N2CCOCC2)n2nc(-c3ccccc3)cc2n1)/c1ccccc1 [Compound 7, N-benzylidene-N′-(7-morpholin-4-yl-2-phenyl-pyrazolo-[1,5-a]pyrimidin-5-yl)-hydrazine] | > 10000 | 113 |
| C(=N\Nc1cc(N2CCOCC2)n2nc(-c3ccccc3)cc2n1)/c1cccnc1 [Compound 8, N-(7-morpholin-4-yl-2-phenyl-pyrazolo[1,5-a]pyrimidin-5-yl)-N′-pyridin-3-yl-methylidene-hydrazine] | > 10000 | 407 |
| Cc1cccc(/C=N/Nc2cc(N3CCOCC3)n3nc(-c4ccccc4C)cc3n2)c1 [Compound 14, N-(3-methyl-benzylidene)-N′-{2-(2-methyl-phenyl)-7-morpholin-4-yl-pyrazolo[1,5-a]pyrimidin-5-yl}-hydrazine] | > 10000 | 38 |
| Cc1cc(-c2cc3nc(N/N=C/c4c[nH]c5ccccc45)cc(N4CCOCC4)n3n2)no1 [Compound 99, N-(1H-indol-3-yl-methylidene)-N′-[2-(5-methylisoxazol-3-yl)-7-morpholin-4-yl-pyrazolo[1,5-a]pyrimidin-5-yl]-hydrazine] | – | 16 |
| Cc1ccccc1/C=N/Nc1cc(N2CCOCC2)n2nc(-c3ccccc3)cc2n1 [Compound 57, N-(2-methyl-benzylidene)-N′-(7-morpholin-4-yl-2-phenyl-pyrazolo[1,5-a]pyrimidin-5-yl)-hydrazine] | – | 420 |
| Cc1cccc(/C=N/Nc2cc(N3CCOCC3)n3nc(-c4cncnc4)cc3n2)c1 [Compound 124, N-(3-methyl-benzylidene)-N′-(7-morpholin-4-yl-2-pyrimidin-5-yl-pyrazolo[1,5-a]pyrimidin-5-yl)-hydrazine] | – | 20 |
| C(=N\Nc1cc(N2CCOCC2)n2nc(-c3ccccc3)cc2n1)/c1cccs1 [Compound 61, N-(7-morpholin-4-yl-2-phenyl-pyrazolo[1,5-a]pyrimidin-5-yl)-N′-(thiophen-2-yl-methylidene)-hydrazine] | – | 370 |
| Cc1cccc(/C=N/Nc2cc(N3CCOCC3)n3nc(-c4ccc(C)nc4)cc3n2)c1 [Compound 110, N-(3-methyl-benzylidene)-N′-[2-(6-methyl-pyridin-3-yl)-7-morpholin-4-yl-pyrazolo[1,5-a]pyrimidin-5-yl]-hydrazine] | – | 7.3 |
| Cc1cccc(/C=N/Nc2cc(N3CCOCC3)n3nc(C4CCNCC4)cc3n2)c1 [Compound 132, N-(3-methyl-benzylidene)-N′-(7-morpholin-4-yl-2-piperidin-4-yl-pyrazolo[1,5-a]pyrimidin-5-yl)-hydrazine] | – | 470 |
| C(=N\Nc1cc(N2CCOCC2)n2nc(-c3cccnc3)cc2n1)/c1ccc2[nH]ccc2c1 [Compound 103, N-(1H-indol-5-yl-methylidene)-N-(7-morpholin-4-yl-2-pyridin-3-yl-pyrazolo[1,5-a]pyrimidin-5-yl)-hydrazine] | – | 160 |
| C(=N\Nc1cc(N2CCOCC2)n2nc(-c3ccncn3)cc2n1)/c1c[nH]c2ccccc12 [Compound 120, N-(1H-indol-3-yl-methylidene)-N-(7-morpholin-4-yl-2-pyrimidin-4-yl-pyrazolo[1,5-a]pyrimidin-5-yl)-hydrazine] | – | 40 |
| Clc1ccccc1/C=N/Nc1cc(N2CCOCC2)n2nc(-c3ccccc3)cc2n1 [Compound 25, N-(2-chloro-benzylidene)-N′-(7-morpholin-4-yl-2-phenyl-pyrazolo[1,5-a]pyrimidin-5-yl)-hydrazine] | – | 150 |
| C(=N\Nc1cc(N2CCOCC2)n2nc(N3CCCCC3)cc2n1)/c1c[nH]c2ccccc12 [Compound 101, N-(1H-indol-3-yl-methylidene)-N-(7-morpholin-4-yl-2-piperidin-1-yl-pyrazolo[1,5-a]pyrimidin-5-yl)-hydrazine] | – | 380 |
| Cc1cccc(/C=N/Nc2cc(N3CCOCC3)n3nc(-c4ccco4)cc3n2)c1 [Compound 33, N-(2-furan-2-yl-7-morpholin-4-yl-pyrazolo[1,5-a]-pyrimidin-5-yl)-N′-(3-methyl-benzylidene)-hydrazine] | – | 17 |
